From patent US10131652B2, “Pyrimidinyloxy benzene derivatives as herbicides” (E. I. DU PONT DE NEMOURS AND COMPANY, priority 2014, dated 2018)

Columns and labels:
Test in all cases: Test D pre-/postemergence plant response
Assay type in all cases: in vivo
[1] = test system: Italian ryegrass (Lolium multiflorum)
In short: (§1)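 Visual rating, 0–100 scale (0 = no effect, 100 = complete control), versus untreated controls 13 to 15 days after treatment in greenhouse. Preemergence: seeds in loam/sand soil. Postemergence: 2 to 18 cm plants, 1- to 4-leaf stage, peat-based medium. Compounds formulated in non-phytotoxic solvent plus surfactant.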

[2] = test system: barnyardgrass (Echinochloa crus-galli)
In short: as §1

[3] = test system: yellow nutsedge (Cyperus esculentus)
In short: as §1

[4] = test system: blackgrass (Alopecurus myosuroides)
In short: as §1

[5] = test system: giant foxtail (Setaria faberii)
In short: as §1

[6] = test system: velvetleaf (Abutilon theophrasti)
In short: as §1

[7] = test system: johnsongrass (Sorghum halepense)
In short: as §1

[8] = test system: large (Lg) crabgrass (Digitaria sanguinalis)
In short: as §1

[9] = test system: waterhemp (common waterhemp, Amaranthus rudis)
In short: as §1

[10] = test system: oilseed rape (Brassica napus)
In short: as §1

[11] = test system: lambsquarters (Chenopodium album)
In short: as §1

[12] = test system: corn (Zea mays)
In short: as §1

[13] = test system: soybean (Glycine max)
In short: as §1

[14] = test system: winter wheat (Triticum aestivum)
In short: as §1

[15] = test system: ragweed (common ragweed, Ambrosia elatior)
In short: as §1

[16] = test system: galium (catchweed bedstraw, Galium aparine)
In short: as §1

[17] = test system: morningglory (Ipomoea coccinea)
In short: as §1

[18] = test system: pigweed (Amaranthus retroflexus)
In short: as §1

[19] = Postemergence, 16 g ai/ha, scale 0 to 100 (0 no effect, 100 complete control)
[20] = Postemergence, 31 g ai/ha, scale 0 to 100 (0 no effect, 100 complete control)
[21] = Postemergence, 62 g ai/ha, scale 0 to 100, 0 no effect, 100 complete control
[22] = Postemergence, 125 g ai/ha, scale 0 to 100, 0 no effect, 100 complete control
[23] = Preemergence, 16 g ai/ha, scale 0 to 100 (0 no effect, 100 complete control)
[24] = Preemergence, 31 g ai/ha, scale 0 to 100 (0 no effect, 100 complete control)
[25] = Preemergence, 62 g ai/ha, scale 0 to 100 (0 no effect, 100 complete control)

Compound: FC(F)c1cc(-c2c(Cl)cccc2Oc2ncc(Cl)cn2)on1 [Compound 120]
- Ryegrass, Italian plant response rating [1, 19]: 5
- Ryegrass, Italian plant response rating [1, 20]: 5
- Plant response rating, Ryegrass, Italian [1, 21]: 10
- Plant response rating, Ryegrass, Italian [1, 22]: 50
- Plant response rating (scale 0 to 100), Ryegrass, Italian ([1]; Preemergence, 125 g ai/ha): 90
- Plant response rating, Ryegrass, Italian [1, 23]: 5
- Plant response rating, Ryegrass, Italian [1, 24]: 35
- Plant response rating, Ryegrass, Italian [1, 25]: 90
- Barnyardgrass plant response rating [2, 19]: 10
- Barnyardgrass plant response rating [2, 20]: 15
- Plant response rating, Barnyardgrass [2, 21]: 25
- Plant response rating, Barnyardgrass [2, 22]: 40
- Plant response rating (scale 0 to 100), Barnyardgrass ([2]; Preemergence, 62 g ai/ha): 90
- Plant response rating (scale 0 to 100), Barnyardgrass ([2]; Preemergence, 125 g ai/ha): 100
- Plant response rating, Barnyardgrass [2, 23]: 25
- Plant response rating, Barnyardgrass [2, 24]: 75
- Nutsedge, Yellow plant response rating [3, 19]: 5
- Nutsedge, Yellow plant response rating [3, 20]: 10
- Plant response rating, Nutsedge, Yellow [3, 21]: 10
- Plant response rating, Nutsedge, Yellow [3, 22]: 15
- Plant response rating (scale 0 to 100), Nutsedge, Yellow ([3]; Preemergence, 125 g ai/ha): 45
- Plant response rating, Nutsedge, Yellow [3, 23]: 0
- Plant response rating, Nutsedge, Yellow [3, 24]: 5
- Plant response rating, Nutsedge, Yellow [3, 25]: 35
- Blackgrass plant response rating [4, 19]: 20
- Blackgrass plant response rating [4, 20]: 35
- Plant response rating, Blackgrass [4, 21]: 60
- Plant response rating, Blackgrass [4, 22]: 55
- Plant response rating (scale 0 to 100), Blackgrass ([4]; Preemergence, 125 g ai/ha): 90
- Plant response rating, Blackgrass [4, 23]: 70
- Plant response rating, Blackgrass [4, 24]: 60
- Plant response rating, Blackgrass [4, 25]: 90
- Foxtail, Giant plant response rating [5, 19]: 10
- Foxtail, Giant plant response rating [5, 20]: 10
- Plant response rating, Foxtail, Giant [5, 21]: 15
- Plant response rating, Foxtail, Giant [5, 22]: 25
- Plant response rating (scale 0 to 100), Foxtail, Giant ([5]; Preemergence, 125 g ai/ha): 100
- Plant response rating, Foxtail, Giant [5, 23]: 95
- Plant response rating, Foxtail, Giant [5, 24]: 98
- Plant response rating, Foxtail, Giant [5, 25]: 98
- Velvetleaf plant response rating [6, 19]: 70
- Velvetleaf plant response rating [6, 20]: 85
- Plant response rating, Velvetleaf [6, 21]: 100
- Plant response rating, Velvetleaf [6, 22]: 100
- Plant response rating (scale 0 to 100), Velvetleaf ([6]; Preemergence, 125 g ai/ha): 100
- Plant response rating, Velvetleaf [6, 23]: 50
- Plant response rating, Velvetleaf [6, 24]: 75
- Plant response rating, Velvetleaf [6, 25]: 100
- Johnsongrass plant response rating [7, 19]: 5
- Johnsongrass plant response rating [7, 20]: 30
- Plant response rating, Johnsongrass [7, 21]: 40
- Plant response rating, Johnsongrass [7, 22]: 85
- Plant response rating (scale 0 to 100), Johnsongrass ([7]; Preemergence, 125 g ai/ha): 98
- Plant response rating, Johnsongrass [7, 23]: 50
- Plant response rating, Johnsongrass [7, 24]: 55
- Plant response rating, Johnsongrass [7, 25]: 95
- Crabgrass, Large plant response rating [8, 19]: 30
- Crabgrass, Large plant response rating [8, 20]: 25
- Plant response rating, Crabgrass, Large [8, 21]: 35
- Plant response rating, Crabgrass, Large [8, 22]: 65
- Plant response rating (scale 0 to 100), Crabgrass, Large ([8]; Preemergence, 125 g ai/ha): 100
- Plant response rating, Crabgrass, Large [8, 23]: 98
- Plant response rating, Crabgrass, Large [8, 24]: 100
- Plant response rating, Crabgrass, Large [8, 25]: 100
- Waterhemp plant response rating [9, 19]: 90
- Waterhemp plant response rating [9, 20]: 100
- Plant response rating, Waterhemp [9, 21]: 100
- Plant response rating, Waterhemp [9, 22]: 100
- Plant response rating (scale 0 to 100), Waterhemp ([9]; Preemergence, 125 g ai/ha): 100
- Plant response rating, Waterhemp [9, 23]: 100
- Plant response rating, Waterhemp [9, 24]: 100
- Plant response rating, Waterhemp [9, 25]: 100
- Oilseed Rape plant response rating [10, 19]: 80
- Oilseed Rape plant response rating [10, 20]: 85
- Plant response rating, Oilseed Rape [10, 21]: 90
- Plant response rating, Oilseed Rape [10, 22]: 95
- Plant response rating (scale 0 to 100), Oilseed Rape ([10]; Preemergence, 125 g ai/ha): 100
- Plant response rating, Oilseed Rape [10, 23]: 50
- Plant response rating, Oilseed Rape [10, 24]: 90
- Plant response rating, Oilseed Rape [10, 25]: 95
- Lambsquarters plant response rating [11, 19]: 100
- Lambsquarters plant response rating [11, 20]: 100
- Plant response rating, Lambsquarters [11, 21]: 100
- Plant response rating, Lambsquarters [11, 22]: 100
- Plant response rating (scale 0 to 100), Lambsquarters ([11]; Preemergence, 125 g ai/ha): 100
- Plant response rating, Lambsquarters [11, 23]: 70
- Plant response rating, Lambsquarters [11, 24]: 95
- Plant response rating, Lambsquarters [11, 25]: 90
- Corn plant response rating [12, 19]: 15
- Corn plant response rating [12, 20]: 15
- Plant response rating, Corn [12, 21]: 10
- Plant response rating, Corn [12, 22]: 15
- Plant response rating (scale 0 to 100), Corn ([12]; Preemergence, 125 g ai/ha): 75
- Plant response rating, Corn [12, 23]: 0
- Plant response rating, Corn [12, 24]: 35
- Plant response rating, Corn [12, 25]: 25
- Soybean plant response rating [13, 19]: 90
- Soybean plant response rating [13, 20]: 70
- Plant response rating, Soybean [13, 21]: 70
- Plant response rating, Soybean [13, 22]: 95
- Plant response rating (scale 0 to 100), Soybean ([13]; Preemergence, 125 g ai/ha): 50
- Plant response rating, Soybean [13, 23]: 75
- Plant response rating, Soybean [13, 24]: 10
- Plant response rating, Soybean [13, 25]: 60
- Wheat plant response rating [14, 19]: 0
- Wheat plant response rating [14, 20]: 0
- Plant response rating, Wheat [14, 21]: 0
- Plant response rating, Wheat [14, 22]: 0
- Plant response rating (scale 0 to 100), Wheat ([14]; Preemergence, 125 g ai/ha): 5
- Plant response rating, Wheat [14, 23]: 0
- Plant response rating, Wheat [14, 24]: 0
- Plant response rating, Wheat [14, 25]: 5
- Ragweed plant response rating [15, 19]: 40
- Ragweed plant response rating [15, 20]: 55
- Plant response rating, Ragweed [15, 21]: 70
- Plant response rating, Ragweed [15, 22]: 85
- Plant response rating (scale 0 to 100), Ragweed ([15]; Preemergence, 125 g ai/ha): 100
- Plant response rating, Ragweed [15, 23]: 0
- Plant response rating, Ragweed [15, 24]: 0
- Plant response rating, Ragweed [15, 25]: 25
- Galium plant response rating [16, 19]: 98
- Galium plant response rating [16, 20]: 98
- Plant response rating, Galium [16, 21]: 100
- Plant response rating, Galium [16, 22]: 100
- Plant response rating (scale 0 to 100), Galium ([16]; Preemergence, 125 g ai/ha): 90
- Plant response rating, Galium [16, 23]: 90
- Plant response rating, Galium [16, 24]: 98
- Plant response rating, Galium [16, 25]: 90
- Morningglory plant response rating [17, 19]: 85
- Morningglory plant response rating [17, 20]: 98
- Plant response rating, Morningglory [17, 21]: 80
- Plant response rating, Morningglory [17, 22]: 100
- Plant response rating (scale 0 to 100), Morningglory ([17]; Preemergence, 125 g ai/ha): 75
- Plant response rating, Morningglory [17, 23]: 0
- Plant response rating, Morningglory [17, 24]: 30
- Plant response rating, Morningglory [17, 25]: 60
- Pigweed plant response rating [18, 19]: 98
- Pigweed plant response rating [18, 20]: 100
- Plant response rating, Pigweed [18, 21]: 100
- Plant response rating, Pigweed [18, 22]: 100
- Plant response rating (scale 0 to 100), Pigweed ([18]; Preemergence, 125 g ai/ha): 100
- Plant response rating, Pigweed [18, 23]: 100
- Plant response rating, Pigweed [18, 24]: 100
- Plant response rating, Pigweed [18, 25]: 100

Compound: FC(F)c1cc(-c2c(Cl)cccc2Oc2ncc(Br)cn2)on1 [Compound 121]
- Ryegrass, Italian plant response rating [1, 20]: 10
- Plant response rating, Ryegrass, Italian [1, 21]: 40
- Plant response rating, Ryegrass, Italian [1, 22]: 55
- Barnyardgrass plant response rating [2, 19]: 20
- Barnyardgrass plant response rating [2, 20]: 25
- Plant response rating, Barnyardgrass [2, 21]: 25
- Plant response rating, Barnyardgrass [2, 22]: 45
- Nutsedge, Yellow plant response rating [3, 20]: 10
- Plant response rating, Nutsedge, Yellow [3, 21]: 5
- Plant response rating, Nutsedge, Yellow [3, 22]: 20
- Blackgrass plant response rating [4, 19]: 5
- Blackgrass plant response rating [4, 20]: 25
- Plant response rating, Blackgrass [4, 21]: 30
- Plant response rating, Blackgrass [4, 22]: 50
- Foxtail, Giant plant response rating [5, 19]: 10
- Foxtail, Giant plant response rating [5, 20]: 10
- Plant response rating, Foxtail, Giant [5, 21]: 15
- Plant response rating, Foxtail, Giant [5, 22]: 40
- Velvetleaf plant response rating [6, 20]: 80
- Plant response rating, Velvetleaf [6, 21]: 80
- Plant response rating, Velvetleaf [6, 22]: 85
- Johnsongrass plant response rating [7, 20]: 35
- Plant response rating, Johnsongrass [7, 21]: 60
- Plant response rating, Johnsongrass [7, 22]: 60
- Crabgrass, Large plant response rating [8, 19]: 15
- Crabgrass, Large plant response rating [8, 20]: 10
- Plant response rating, Crabgrass, Large [8, 21]: 40
- Plant response rating, Crabgrass, Large [8, 22]: 55
- Waterhemp plant response rating [9, 20]: 95
- Plant response rating, Waterhemp [9, 21]: 100
- Plant response rating, Waterhemp [9, 22]: 100
- Oilseed Rape plant response rating [10, 20]: 80
- Plant response rating, Oilseed Rape [10, 21]: 95
- Plant response rating, Oilseed Rape [10, 22]: 95
- Lambsquarters plant response rating [11, 20]: 100
- Plant response rating, Lambsquarters [11, 21]: 100
- Plant response rating, Lambsquarters [11, 22]: 100
- Corn plant response rating [12, 19]: 10
- Corn plant response rating [12, 20]: 20
- Plant response rating, Corn [12, 21]: 20
- Plant response rating, Corn [12, 22]: 25
- Soybean plant response rating [13, 20]: 60
- Plant response rating, Soybean [13, 21]: 90
- Plant response rating, Soybean [13, 22]: 95
- Wheat plant response rating [14, 20]: 0
- Plant response rating, Wheat [14, 21]: 0
- Plant response rating, Wheat [14, 22]: 0
- Ragweed plant response rating [15, 20]: 65
- Plant response rating, Ragweed [15, 21]: 75
- Plant response rating, Ragweed [15, 22]: 98
- Galium plant response rating [16, 20]: 90
- Plant response rating, Galium [16, 21]: 100
- Plant response rating, Galium [16, 22]: 95
- Morningglory plant response rating [17, 20]: 75
- Plant response rating, Morningglory [17, 21]: 90
- Plant response rating, Morningglory [17, 22]: 98
- Pigweed plant response rating [18, 20]: 98
- Plant response rating, Pigweed [18, 21]: 100
- Plant response rating, Pigweed [18, 22]: 100
